Source: US8492559B2, “Substituted indole compounds” (Gruenenthal GmbH, priority 2009, dated 2013)

Target: T1, B1R receptor of the rat (rB1R) (Rattus norvegicus, UniProt P97583)
T1 construct: expressed in transfected cells; host or cells: CHO K1 cells
T1 sequence (P97583 1-337): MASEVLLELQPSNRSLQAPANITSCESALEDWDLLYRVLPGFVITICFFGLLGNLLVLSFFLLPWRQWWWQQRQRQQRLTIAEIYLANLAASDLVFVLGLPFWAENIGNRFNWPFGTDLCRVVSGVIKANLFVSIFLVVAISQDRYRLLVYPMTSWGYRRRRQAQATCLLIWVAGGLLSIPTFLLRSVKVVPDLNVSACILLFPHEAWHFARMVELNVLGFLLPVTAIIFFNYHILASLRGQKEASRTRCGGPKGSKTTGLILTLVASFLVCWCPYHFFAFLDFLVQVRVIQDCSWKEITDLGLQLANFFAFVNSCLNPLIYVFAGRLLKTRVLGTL
Assay: Functional investigation on the bradykinin 1 receptor (B1R), FLIPR Ca2+ assay, rB1R cells
Format: cell-based
Settings: CHO-K1, 10 μM test substance; CHO K1 cells with rat B1R; agonist Des-Arg9 bradykinin; % of maximum achievable inhibition; read-out: B1R antagonism, rat [10 μM] % inhibition
Experimental: The indication in % activation is based on the Ca^2+ signal after addition of Lys-Des-[…] bradykinin (0.5 nM) or Des-[…] bradykinin (100 nM). Antagonists lead to a suppression of the Ca^2+ influx following administration of the agonist. The % inhibition in comparison with the maximum achievable inhibition is indicated. […] According to this assay, the Ca^2+ inflow through the channel is quantified with the aid of a Ca^2+-sensitive dye (Fluo-4 type, Molecular Probes Europe BV, Leiden, Netherlands) in a fluorescent imaging plate reader (FLIPR, Molecular Devices, Sunnyvale, USA). […] For functional investigations these cells are plated-out onto black 96-well plates with a clear base (BD Biosciences, Heidelberg, Germany or Greiner, Frickenhausen, Germany) in a density of 20,000-35,000 cells/well. Overnight the cells are incubated at 37° C. and 5% CO2 in culture medium (hB1R cells: Ham's Nutrient Mixture F12, Gibco Invitrogen GmbH, Karlsruhe, Germany or DMEM, Sigma-Aldrich, Taufkirchen, Germany; rB1R cells: D-MEM/F12, Gibco Invitrogen, Karlsruhe, Germany) with 10 vol. % FBS (foetal bovine serum, Gibco Invitrogen GmbH, Karlsruhe, Germany or PAN Biotech GmbH, Aidenbach, Germany). On the following day the cells are loaded with 2.13 μM Fluo-4 (Molecular Probes Europe BV, Leiden, Netherlands) in HBSS buffer (Hank's buffered saline solution, Gibco Invitrogen GmbH, Karlsruhe, Germany) with 2.5 mM probenecid (Sigma-Aldrich, Taufkirchen, Germany) and 10 mM HEPES (Sigma-Aldrich, Taufkirchen, Germany) for 60 min at 37° C. […] Sigma-Aldrich, Taufkirchen, Germany), 5.6 mM glucose and 0.05% gelatine (Merck KGaA, Darmstadt, Germany) is added. After a further incubation of 20 minutes at room temperature, the plates are inserted into the FLIPR for Ca^2+ measurement. Alternatively they are washed with buffer A (15 mM HEPES, 80 mM NaCl, 5 mM KCl, 1.2 mM CaCl2, 0.7 mM MgSO4, 2 g/l glucose, 2.5 mM probenecid) and loaded with buffer A with added 2.5 μM Fluo-4 and 0.025% Pluronic F127 (Sigma-Aldrich, Taufkirchen, Germany). The cells are then washed twice with buffer A and incubated for 30 minutes with buffer A, which additionally contains 0.05% BSA and 0.05% gelatine, at room temperature and then used for Ca^2+ measurement in the FLIPR. The Ca^2+-dependent fluorescence is measured here before and after addition of substances (λex=488 nm, λem=540 nm). The quantification is performed by measuring the highest fluorescence intensity (FC, fluorescence counts) over time. The FLIPR protocol comprises two additions of substance. […] Lys-Des-[…] bradykinin>=50 nM; rB1R: […] Antagonists lead to a suppression of the Ca^2+ inflow. The % inhibition in comparison with the maximum achievable inhibition is calculated. The substances are added in varying concentrations in order to determine the IC50 value. Double or triple determinations (n=2 or n=3) are performed and these are repeated in at least one further independent experiment (N>=2).

inhibition at 10 µM [%]	Compound
59	COc1cc(C)c(S(=O)(=O)Nc2cccc3ccn(CCC(=O)N4CCC(O)(c5ccccn5)CC4)c23)c(C)c1 [G_CC-45, N-[1-[3-(4-Hydroxy-4-pyridin-2-yl-piperidin-1-yl)-3-oxo-propyl]-1H-indol-7-yl]-4-methoxy-2,6-dimethyl-benzenesulfonic acid amide]
59	COc1cc(C)c(S(=O)(=O)Nc2cccc3ccn(CCC(=O)N4CCC(c5ccccc5)(N(C)C)CC4)c23)c(C)c1 [G_CC-48, N-[1-[3-(4-Dimethylamino-4-phenyl-piperidin-1-yl)-3-oxo-propyl]-1H-indol-7-yl]-4-methoxy-2,6-dimethyl-benzenesulfonic acid amide]
92	COc1cc(C)c(S(=O)(=O)Nc2cccc3ccn(CCC(=O)N(C)CCCN4CCC(c5ccccc5)(N(C)C)CC4)c23)c(C)c1 [G_CC-49, N-[3-(4-Dimethylamino-4-phenyl-piperidin-1-yl)-propyl]-3-[7-[[(4-methoxy-2,6-dimethyl-phenyl)sulfonyl]amino]-1H-indol-1-yl]-N-methyl-propionamide]
100	O=C(CCn1ccc2cccc(NS(=O)(=O)c3ccccc3C(F)(F)F)c21)N1CCC2(CC1)CCN(c1ccncc1)CC2 [G_CC-52, N-[1-[3-Oxo-3-(3-pyridin-4-yl-3,9-diazaspiro[5.5]undecan-9-yl)-propyl]-1H-indol-7-yl]-2-(trifluoromethyl)-benzenesulfonic acid amide]
101	O=C(Cn1ccc2cccc(NS(=O)(=O)c3ccccc3C(F)(F)F)c21)N1CCC2(CC1)CCN(c1ccncc1)CC2 [G_CC-53, N-[1-[2-Oxo-2-(3-pyridin-4-yl-3,9-diazaspiro[5.5]undecan-9-yl)-ethyl]-1H-indol-7-yl]-2-(trifluoromethyl)-benzenesulfonic acid amide]
100	COc1cc(C)c(S(=O)(=O)Nc2ccc3ccn(CC(=O)N4CCC(OCCN5CCCC5)(c5cccnc5)CC4)c3c2)c(C)c1 [G_CC-57, 4-Methoxy-2,6-dimethyl-N-[1-[2-oxo-2-[4-pyridin-3-yl-4-(2-pyrrolidin-1-yl-ethoxy)-piperidin-1-yl]-ethyl]-1H-indol-6-yl]-benzenesulfonic acid amide]
87	Cc1cc(S(=O)(=O)Nc2cccc3ccn(CCC(=O)N4CCN(C5CCN(C)CC5)CC4)c23)c(C)cc1Cl [G_CC-59, 4-Chloro-2,5-dimethyl-N-[1-[3-[4-(1-methyl-piperidin-4-yl)-piperazin-1-yl]-3-oxo-propyl]-1H-indol-7-yl]-benzenesulfonic acid amide]
79	Cc1cc(S(=O)(=O)Nc2cccc3ccn(CCC(=O)N4CCC(N5CCN(C)CC5)CC4)c23)c(C)cc1Cl [G_CC-61, 4-Chloro-2,5-dimethyl-N-[1-[3-[4-(4-methyl-piperazin-1-yl)-piperidin-1-yl]-3-oxo-propyl]-1H-indol-7-yl]-benzenesulfonic acid amide]
100	O=C(CCn1ccc2ccc(N3Cc4cccc(Cl)c4C3=O)cc21)N1CCN(c2ccncc2)CC1 [G_CC-63, 7-Chloro-2-[1-[3-oxo-3-(4-pyridin-4-yl-piperazin-1-yl)-propyl]-1H-indol-6-yl]-2,3-dihydro-isoindol-1-one]
53	Cc1cc(S(=O)(=O)Nc2ccc3ccn(CCC(=O)N4CCC5(CC4)CCN(c4ccncc4)CC5)c3c2)c(C)cc1Cl [G_CC-65, 4-Chloro-2,5-dimethyl-N-[1-[3-oxo-3-(3-pyridin-4-yl-3,9-diazaspiro[5.5]undecan-9-yl)-propyl]-1H-indol-6-yl]-benzenesulfonic acid amide]
65	O=C(CCn1ccc2ccc(N3Cc4cccc(Cl)c4C3=O)cc21)N1CCC(O)(c2cccnc2)CC1 [G_CC-69, 7-Chloro-2-[1-[3-(4-hydroxy-4-pyridin-3-yl-piperidin-1-yl)-3-oxo-propyl]-1H-indol-6-yl]-2,3-dihydro-isoindol-1-one]

Further lines, the compound ahead of its results:

Compound	inhibition at 10 µM [%]
COc1cc(C)c(S(=O)(=O)Nc2cccc3ccn(CCC(=O)N4CCN(CCCN(C)C)CC4)c23)c(C)c1 [G_CC-44, N-[1-[3-[4-(3-Dimethylamino-propyl)-piperazin-1-yl]-3-oxo-propyl]-1H-indol-7-yl]-4-methoxy-2,6-dimethyl-benzenesulfonic acid amide]	73
COc1cc(C)c(S(=O)(=O)Nc2cccc3ccn(CCC(=O)N(C)CCCN4CCC(c5cccs5)(N(C)C)CC4)c23)c(C)c1 [G_CC-46, N-[3-(4-Dimethylamino-4-thiophen-2-yl-piperidin-1-yl)-propyl]-3-[7-[[(4-methoxy-2,6-dimethyl-phenyl)sulfonyl]amino]-1H-indol-1-yl]-N-methyl-propionamide]	94
COc1cc(C)c(S(=O)(=O)Nc2cccc3ccn(CCC(=O)NC4CCC(c5ccccc5)(N5CCC5)CC4)c23)c(C)c1 (stereo not drawn) [G_CC-50, N-[4-(Azetidin-1-yl)-4-phenyl-cyclohexyl]-3-[7-[[(4-methoxy-2,6-dimethyl-phenyl)sulfonyl]amino]-1H-indol-1-yl]-propionamide]	62
COc1cc(C)c(S(=O)(=O)Nc2cccc3ccn(CCC(=O)NCCN4CCC(c5cccs5)(N(C)C)CC4)c23)c(C)c1 [G_CC-51, N-[2-(4-Dimethylamino-4-thiophen-2-yl-piperidin-1-yl)-ethyl]-3-[7-[[(4-methoxy-2,6-dimethyl-phenyl)sulfonyl]amino]-1H-indol-1-yl]-propionamide]	93
CCN1CCN(CCCNC(=O)CCn2ccc3cccc(NS(=O)(=O)c4c(C)cc(OC)cc4C)c32)CC1 [G_CC-56, N-[3-(4-Ethyl-piperazin-1-yl)-propyl]-3-[7-[[(4-methoxy-2,6-dimethyl-phenyl)sulfonyl]amino]-1H-indol-1-yl]-propionamide]	54
Cc1cc(S(=O)(=O)Nc2cccc3ccn(CCC(=O)N4CCC(CCN5CCCC5)CC4)c23)c(C)cc1Cl [G_CC-60, 4-Chloro-2,5-dimethyl-N-[1-[3-oxo-3-[4-(2-pyrrolidin-1-yl-ethyl)-piperidin-1-yl]-propyl]-1H-indol-7-yl]-benzenesulfonic acid amide]	87
CN1CCC(CN2CCN(C(=O)CCn3ccc4ccc(N5Cc6cccc(Cl)c6C5=O)cc43)CC2)CC1 [G_CC-64, 7-Chloro-2-[1-[3-[4-[(1-methyl-piperidin-4-yl)-methyl]-piperazin-1-yl]-3-oxo-propyl]-1H-indol-6-yl]-2,3-dihydro-isoindol-1-one]	89
O=C(CCn1ccc2ccc(N3Cc4cccc(Cl)c4C3=O)cc21)N1CCC2(CC1)CCN(Cc1ccc(F)cc1)C2=O [G_CC-66, 8-[3-[6-(4-Chloro-3-oxo-1,2-dihydro-isoindol-2-yl)-1H-indol-1-yl]-propanoyl]-3-[(4-fluorophenyl)-methyl]-3,8-diazaspiro[4.5]decan-4-one]	52
O=C(CCn1ccc2ccc(N3Cc4cccc(Cl)c4C3=O)cc21)N1CCC(Oc2ccncc2)CC1 [G_CC-68, 7-Chloro-2-[1-[3-oxo-3-(4-pyridin-4-yloxy-piperidin-1-yl)-propyl]-1H-indol-6-yl]-2,3-dihydro-isoindol-1-one]	69
Cc1cc(S(=O)(=O)Nc2cccc3ccn(CCC(=O)NCCC4CCN(c5ccncc5)CC4)c23)c(C)cc1Cl [G_CC-70, 3-[7-[[(4-Chloro-2,5-dimethyl-phenyl)sulfonyl]amino]-1H-indol-1-yl]-N-[2-(1-pyridin-4-yl-piperidin-4-yl)-ethyl]-propionamide]	100
